Results on 19 compounds are retold here after article PMC8274062, “Promising Non-cytotoxic Monosubstituted Chalcones to Target Monoamine Oxidase-B” (ACS Medicinal Chemistry Letters, 2021).

The GI50 is the concentration that inhibits growth by half. The low end stands for greater sensitivity of the cells, the high end for lower sensitivity of the cells. As usually defined, the Ki is a measure of affinity in units of concentration, obtained from inhibition or displacement.

The target of assay [1] is T1, human recombinant MAO-B (Homo sapiens, UniProt P27338).
T1 sequence (P27338 1-520): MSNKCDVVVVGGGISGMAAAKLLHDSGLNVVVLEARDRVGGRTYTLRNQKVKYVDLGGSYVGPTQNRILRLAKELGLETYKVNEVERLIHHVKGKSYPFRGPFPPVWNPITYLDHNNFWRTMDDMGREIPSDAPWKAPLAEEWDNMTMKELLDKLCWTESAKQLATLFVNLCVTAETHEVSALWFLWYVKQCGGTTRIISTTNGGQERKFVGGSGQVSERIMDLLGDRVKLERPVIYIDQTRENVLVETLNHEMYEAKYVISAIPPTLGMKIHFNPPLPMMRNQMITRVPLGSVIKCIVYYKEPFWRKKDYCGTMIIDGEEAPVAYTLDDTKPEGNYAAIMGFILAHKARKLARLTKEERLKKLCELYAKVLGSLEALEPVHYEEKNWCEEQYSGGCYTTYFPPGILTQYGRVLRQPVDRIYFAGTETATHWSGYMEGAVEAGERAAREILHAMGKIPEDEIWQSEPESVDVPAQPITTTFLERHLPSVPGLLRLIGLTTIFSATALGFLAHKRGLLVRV
The assay is described as follows: Monoamine oxidase inhibition assay (Amplex Red, kynuramine), MAO-B. The conditions noted are these: for mode of inhibition: Lineweaver–Burk double-reciprocal plots, MAO-B; for Ki: read-out: Ki MAO-B, kynuramine substrate, pH 7.4, 37°C.
Procedure: (§1) Materials. Human recombinant MAO-A and MAO-B were expressed in baculovirus infected BT1 cells (5 mg/ml) and horseradish peroxidases were purchased from Fluka-Sigma-Aldrich s.r.l. (Italy). A Cary-Eclipse fluorimeter (Varian Inc., Palo Alto, CA, USA) was employed for fluorescence measurements.
(§2) Monoamine oxidase inhibition assay. Monoamine oxidase activity was determined by measuring H2O2 generation rate by a peroxidase-coupled continuous assay, using the Amplex Red reagent as fluorogenic substrate for horseradish peroxidase.1 All experiments were carried out as previously reported,2 in 100 mM potassium phosphate buffer, 0.1 mM EDTA, pH 7.4 and at 37°C. The assays were carried out in a final volume of 800 L, in the presence of Amplex Red (100 M) and horseradish peroxidase type II (5 UmL -1), and using kynuramine (20-1200 M) as common MAO-A and MAO-B substrate. h-MAO-A and h-MAO-B concentration in the assay solutions were 3 and 6 g/ml, respectively. After 5 min of pre-incubation of the enzyme with the compounds, substrate was added and the initial rates of reaction were recorded. The rates of the enzymatic reaction were determined by detecting the increase in the fluorescence intensity at
(§3) The generation rate of H2O2 was calculated from the increase of fluorescence intensity by means of calibration curves obtained using standard solution of H2O, in
M of maxima concentrations tested).
(§4) Steady state kinetic parameters (V max and K m) were calculated by fitting the Michaelis-Menten equation to the experimental data (initial velocity vs substrate concentrations), with Sigma Plot software, version 9.0 (Jandel Scientific, San Rafael, CA, USA). The mode of inhibition was determined by global fit analysis (GraphPad 9.0 software, GraphPad Software, San Diego, CA,
(§5) USA) of the initial velocity (V0) vs substrate concentration plots, at various inhibitor concentrations. The competitive, mixed, non-competitive and uncompetitive inhibition models were analysed and the fit giving the highest r2 value was chosen for the calculation of inhibition
(§6) compounds, experimental data are presented as double reciprocal Lineweaver-Burk plots (1/v vs 1/S). Ki values are expressed as mean ±S.D. All experiments were carried out at least in

The test system of assay [2] is A2780 (human ovarian carcinoma cells). The assay is described as follows: Cell growth assay (trypan blue), A2780. The format is cell-based. The conditions noted are these: A2780, 72 h of incubation.
The subject of assay [3] is Met-5A (human mesothelial cells). The assay is described as follows: Cell growth assay (trypan blue), Met-5A. The assay is classed as cell-based. Conditions: nontumorigenic Met-5A mesothelial cells. The source says:
fluorescence measurements.
prepared in dimethylsulfoxide.
performed to determine cell viability.
µM of maxima concentrations tested).
The mode of inhibition was […]

Assay [4] relates to HT-29 (human colorectal adenocarcinoma). The assay is described as follows: Cell growth assay (trypan blue), HT-29. The format is cell-based. Conditions: HT-29, 72 h of incubation.
The test system of assay [5] is MAO-B. Also noted: method as in PMID 26337020, PMID 28577983. The conditions noted are these: previously tested; ref [19],[23]; cited from earlier work.
For assay [6], the target named is T2, human recombinant MAO-A (Homo sapiens, UniProt P21397).
T2 sequence (P21397 1-527): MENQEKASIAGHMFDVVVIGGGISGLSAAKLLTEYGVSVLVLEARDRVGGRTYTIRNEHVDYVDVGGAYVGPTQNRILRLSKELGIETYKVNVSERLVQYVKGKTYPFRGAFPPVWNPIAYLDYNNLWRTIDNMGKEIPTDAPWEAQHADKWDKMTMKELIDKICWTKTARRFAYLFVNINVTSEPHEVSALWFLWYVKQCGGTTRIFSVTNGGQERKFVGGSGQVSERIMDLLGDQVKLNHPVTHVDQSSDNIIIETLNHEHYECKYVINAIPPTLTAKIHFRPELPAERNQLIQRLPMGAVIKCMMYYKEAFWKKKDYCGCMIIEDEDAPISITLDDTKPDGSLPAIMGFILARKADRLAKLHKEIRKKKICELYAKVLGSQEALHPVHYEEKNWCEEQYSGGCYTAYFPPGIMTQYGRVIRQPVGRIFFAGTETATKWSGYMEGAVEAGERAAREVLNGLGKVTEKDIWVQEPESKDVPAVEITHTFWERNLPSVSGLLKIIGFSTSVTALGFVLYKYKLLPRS
The assay is described as follows: Monoamine oxidase inhibition assay (Amplex Red, kynuramine), MAO-A. The conditions noted are these: read-out: Ki MAO-A; kynuramine substrate, pH 7.4, 37°C.
Procedure: as §1, §2, §3
M of maxima concentrations tested).
as §4, §5, §6

Assay [7] has as its system recombinant MAO-A or MAO-B. The assay is described as follows: Reversibility assay (dialysis/ultrafiltration). The format is biochemical, human. The conditions noted are these: incubated at 4 times the Ki value for 20 min before dialysis.

Where “and” joins values, the source holds several entries; their conditions need not be identical. Equal entries are not always repeated.

With `C[C@H](NCc1ccc(OCc2cccc(F)c2)cc1)C(N)=O` [safinamide, reference compound], in assay [1], the mode of inhibition result is listed as “standard competitive inhibitor”. Moreover, the GI50 in assay [2], in assay [3] and in assay [4] was more than 20 µM each time.

On to `O=C(/C=C/c1ccc(C(F)(F)F)cc1)c1ccccc1` [Compound 6], for which the GI50 in assay [2] was 14 ± 0.9 µM; in assay [4], 12.2 ± 0.4 µM.

`O=C(/C=C/c1ccc([N+](=O)[O-])cc1)c1ccccc1` [Compound 3]: the GI50 in assay [2] was 7.5 ± 1.3 µM; in assay [4] it was 15.5 ± 3.9 µM.

On to `O=C(/C=C/c1ccccc1)c1ccccc1[N+](=O)[O-]` [Compound 10], for which the GI50 in assay [2] worked out at 5.8 ± 0.8 µM; in assay [4], 8.3 ± 1.4 µM.

On to `O=C(/C=C/c1cccc(C(F)(F)F)c1)c1ccccc1` [Compound 5], for which the 50% growth inhibitory concentration (GI50) in assay [2] was determined as 10 ± 0.4 µM; in assay [4] it was 12.7 ± 3.2 µM.

For the compound `COc1ccccc1C(=O)/C=C/c1ccccc1` [Compound 15], the “inhibitory potency on MAO-B” value in assay [5] is “lower inhibitory potency than for 17”. Further, the values for the GI50 in assay [2] and in assay [4] were 7.3 ± 1.1 µM and 14.8 ± 2 µM, respectively.

As to `COc1cccc(C(=O)/C=C/c2ccccc2)c1` [Compound 16], the “inhibitory potency on MAO-B” value in assay [5] is “lower inhibitory potency than for 17”. Also, the GI50 was found to be 8 ± 0.1 µM in assay [2] and 14.7 ± 2.5 µM in assay [4].

On to `O=C(/C=C/c1ccccc1)c1ccccc1` [chalcone], for which, in assay [1], the mode of inhibition entry was “competitive behavior” and the Ki worked out at 0.056 ± 0.006 µM. In assay [6], the Ki stood at 14.6 µM. Moreover, the concentration for 50% growth inhibition (GI50) in assay [3] is approximately 7 µM.

For the compound `O=C(/C=C/c1ccccc1[N+](=O)[O-])c1ccccc1` [Compound 1], in assay [1], the mode of inhibition entry was “competitive behavior”. Moreover, the inhibition constant (Ki) in assay [1] turned out to be 0.4 ± 0.08 µM; in assay [6], 2.2 µM. Further, the GI50 in assay [2] and in assay [4] was more than 20 µM each time.

On to `COc1ccc(C(=O)/C=C/c2ccccc2)cc1` [Compound 17], for which the Ki was 0.022 µM and 0.0219 µM in assay [1]; 13 µM in assay [6]. For the same compound, the concentration for 50% growth inhibition (GI50) in assay [2] was 6.8 ± 1 µM; in assay [3], approximately 11.8 µM; in assay [4], 11.7 ± 3.7 µM.

With `O=C(/C=C/c1ccccc1C(F)(F)F)c1ccccc1` [Compound 4], the GI50 was found to be 7.2 ± 0.3 µM in assay [2] and 11.7 ± 3.6 µM in assay [4].

On to `COc1ccccc1/C=C/C(=O)c1ccccc1` [Compound 7], for which the concentration for 50% growth inhibition (GI50) in assay [2] was found to be 13.8 ± 0.3 µM; in assay [4], 13 ± 4 µM.

As for `O=C(/C=C/c1ccccc1)c1ccc(C(F)(F)F)cc1` [Compound 14], in assay [1], the mode of inhibition result is listed as “competitive behavior” and the Ki turned out to be 0.0146 ± 0.0001 µM. Moreover, the Ki in assay [6] came to 9.2 µM.

As to `O=C(/C=C/c1ccccc1)c1cccc(C(F)(F)F)c1` [Compound 13], in assay [7], the “MAO activity after dialysis (reversibility)” value was “fully recovered”. In addition, the mode of inhibition entry in assay [1] is recorded as “competitive mode of inhibition”. For the same compound, the Ki was found to be 0.005 ± 0.0005 µM in assay [1] and 4.6 µM in assay [6]. Further, the GI50 in assay [2], in assay [3] and in assay [4] was more than 20 µM throughout.

Take `O=C(/C=C/c1ccccc1)c1ccccc1C(F)(F)F` [Compound 12]: the GI50 was 5.8 ± 2.9 µM in assay [2] and 10.8 ± 0.4 µM in assay [4].

`COc1cccc(/C=C/C(=O)c2ccccc2)c1` [Compound 8]: the GI50 was found to be 13.2 ± 2.2 µM in assay [2] and 14.5 ± 0.7 µM in assay [4].

For the compound `O=C(/C=C/c1ccccc1)c1cccc([N+](=O)[O-])c1` [Compound 11], the GI50 is 4.3 ± 1.5 µM in assay [2] and 9 ± 0.1 µM in assay [4].

As to `O=C(/C=C/c1cccc([N+](=O)[O-])c1)c1ccccc1` [Compound 2], the inhibition constant (Ki) in assay [1] came to 0.071 ± 0.011 µM; in assay [6], 2.5 µM. Further, the concentration for 50% growth inhibition (GI50) in assay [2] is 2.8 ± 0.3 µM; in assay [4] it was 5 ± 1.8 µM.

On to `COc1ccc(/C=C/C(=O)c2ccccc2)cc1` [Compound 9], for which the concentration for 50% growth inhibition (GI50) is 14.4 ± 3.5 µM in assay [2] and 16.7 ± 2.5 µM in assay [4].
